Results as given in patent US6525059B1, “Substituted pyrazoles as p38 kinase inhibitors” (G. D. Searle & Company, priority 1998, dated 2003).

Assays:
[1] = molecular target: T1, human GST-p38 kinase alpha (Homo sapiens, UniProt Q16539); test: p38 kinase in vitro assay, second format, phosphorylation of EGFRP with 33P-ATP; assay type: biochemical; conditions: Table 10, 10% DMSO; @ 1.0 hour; read-out: p38α Kinase Assay IC50
T1 construct: The coding region of the human p38a cDNA was obtained by PCR-amplification from RNA isolated from the human monocyte cell line THP.1; made in house; host or cells: E. coli DH10B
T1 sequence (Q16539 whole entry): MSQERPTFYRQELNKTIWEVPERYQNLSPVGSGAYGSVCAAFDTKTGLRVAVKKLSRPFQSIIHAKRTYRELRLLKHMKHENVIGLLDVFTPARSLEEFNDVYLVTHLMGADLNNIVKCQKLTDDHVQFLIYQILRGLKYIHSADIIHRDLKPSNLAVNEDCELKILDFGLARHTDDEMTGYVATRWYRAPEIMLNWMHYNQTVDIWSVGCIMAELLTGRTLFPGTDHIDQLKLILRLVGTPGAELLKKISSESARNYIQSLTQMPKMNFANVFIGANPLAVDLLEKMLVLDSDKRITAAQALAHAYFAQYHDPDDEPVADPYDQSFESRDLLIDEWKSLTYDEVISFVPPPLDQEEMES
Method in brief: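 Activated human GST-p38α (pre-activated with GST-MKK6, 1 h, 30 °C) phosphorylates EGFR 21-mer peptide (200 μM) with 50 μM ATP plus γ-33P-ATP, pH 7.5, 60 min at room temperature. Unreacted ATP removed by AG 1×8 resin; supernatant scintillation-counted.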

TNF-α [2] = test: Rat assay: LPS-challenged rats, serum TNF-α by ELISA; assay type: in vivo; conditions: Rattus norvegicus, po; for inhibition in vivo at 5 mg/kg: Table 10, dose 5.0 mg/kg, read-out: Rat LPS Assay % Inhibition; for inhibition in vivo at 20 mg/kg: Table 10, dose 20.0 mg/kg
TNF-α [3] = test: LPS stimulation of TNF production by U937 cells; assay type: cell-based, human; conditions: Homo sapiens, U-937, LPS-stimulated U937 cells; read-out: U937 Cell Assay IC50
Method in brief: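 PMA-differentiated human U937 cells (20 ng/ml PMA, 24 h, then 24-48 h rest) at 2 million cells/ml, 0.1% DMSO final, stimulated with E. coli LPS (100 ng/ml final) for 4 h at 37° C. TNF-α in medium measured by ELISA; IC50 in μM.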

human p38 kinase alpha = molecular target: T2, human p38 kinase alpha (Homo sapiens, UniProt Q16539); test: p38 kinase in vitro assay, phosphorylation of biotinylated PHAS-I with gamma 32P-ATP; assay type: biochemical; conditions: activated human p38 kinase alpha, PHAS-I substrate, 50 μM unlabeled ATP; read-out: p38 kinase IC50
T2 construct: The coding region of the human p38a cDNA was obtained by PCR-amplification from RNA isolated from the human monocyte cell line THP.1; GST (N); made in house; host or cells: E. coli DH10B
T2 sequence (Q16539 whole entry): as above
Method in brief: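 Radiometric filter-capture read-out: streptavidin plates trap biotin-PHAS-I labelled by activated (MKK6) human p38α from γ-32P-ATP. Buffer 25 mM HEPES pH 7.5, 10 mM magnesium acetate, 50 μM cold ATP; reactions 1 h or overnight at 30 °C; inhibitors 10-fold dilutions 100 to 0.001 μM, triplicates, 1% DMSO.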

Row | IC50 [1] [µM] | melting point | SMILES | also measured
1 |  | 218 to 219 °C | Fc1ccc(-c2[nH]nc(Nc3ccccc3)c2-c2ccncc2)cc1 [Example A-20, 5-(4-Fluorophenyl)-N-phenyl-4-(4-pyridinyl)-1H-pyrazol-3-amine] | IC50 (TNF-α [3]): 1.09 µM
2 |  | 265 to 267 °C | Fc1ccc(-c2[nH]nc(-c3ccccc3)c2-c2ccncc2)cc1 [Example A-21, 4-[5-(4-fluorophenyl)-3-phenyl-1H-pyrazol-4-yl]pyridine] | IC50 (TNF-α [3]): 0.077 µM
3 |  | 304 °C | Fc1ccc(-c2n[nH]c(-c3ccncc3)c2-c2ccncc2)cc1 [Example A-23, 4-[3-(4-fluorophenyl)-4-(4-pyridinyl)-1H-pyrazol-5-yl]pyridine] | IC50 (human p38 kinase alpha): 1.5 µM
4 |  | 183 to 185 °C | COc1ccc(CNc2nccc(-c3cn[nH]c3-c3ccc(F)cc3)n2)cc1 [Example A-305, 4-[3-(4-fluorophenyl)-1H-pyrazol-4-yl]-N-[(4-methoxyphenyl)methyl)-2-pyrimidinamine] | 
5 |  | 273 to 274 °C | Nc1nccc(-c2cn[nH]c2-c2ccc(F)cc2)n1 [Example A-306, 4-[3-(4-fluorophenyl)-1H-pyrazol-4-yl]-2-pyrimidinamine] | 
6 |  | 163 to 165 °C | CCOC(=O)Nc1nccc(-c2cn[nH]c2-c2ccc(F)cc2)n1 [Example A-308, Ethyl [4-[3-(4-fluorophenyl)-1H-pyrazol-4-yl]-2-pyrimidinyl]carbamate] | 
7 |  | 151.67 °C | Cc1cccc(-c2[nH]ncc2-c2ccncn2)c1 [Example A-309, 4-[3-(3-methylphenyl)-1H-pyrazol-4-yl]pyrimidine] | 
8 |  | 168.58 °C | Fc1cccc(-c2[nH]ncc2-c2ccncn2)c1 [Example A-311, 4-[3-(3-fluorophenyl)-1H-pyrazol-4-yl]pyrimidine] | 
9 |  | 191.47 °C | Fc1ccc(-c2[nH]ncc2-c2ccncn2)cc1 [Example A-312, 4-[3-(4-fluorophenyl)-1H-pyrazol-4-yl]pyrimidine] | 
10 |  | 264 to 265 °C | Clc1ccc(-c2[nH]nc(N3CCNCC3)c2-c2ccncc2)cc1 [Example A-328, 1-[5-(4-chlorophenyl)-4-(4-pyridinyl)-1H-pyrazol-3-yl]piperazine] | 
11 | 29.7 | 126.5 to 126.6 °C | Cc1ccccc1C(=O)C(=C1SCS1)c1ccncc1 [Example A-392] | 
12 | 2.32 | 159.6 to 159.7 °C | O=C(C(=C1SCS1)c1ccncc1)c1cccc(Br)c1 [Example A-393] | 
13 | 9.11 | 198.8 to 198.9 °C | Cc1ccc(C(=O)C(=C2SCS2)c2ccncc2)cc1C [Example A-394] | 
14 | 30 | 191.5 to 192.5 °C | COc1ccc(C(=O)C(=C2SCS2)c2ccncc2)cc1Cl [Example A-397] | 
15 | 22.9 | 203 to 204.1 °C | COc1ccc(C(=O)C(=C2SCS2)c2ccncc2)cc1 [Example A-399] | 
16 |  | 257.6 to 257.7 °C | O=C(C(=C1SCS1)c1ccncc1)c1ccc(I)cc1 [Example A-401] | 
17 | 28.9 | 197.3 to 202.2 °C | CN(C)c1ccc(C(=O)C(=C2SCS2)c2ccncc2)cc1 [Example A-402] | 
18 | 0.12 | > 300 °C | C=Cc1ccc(-c2[nH]nc(N3CCN(C)CC3)c2-c2ccncc2)cc1 [Example A-418, 1-[5-(4-ethenylphenyl)-4-(4-pyridinyl)-1H-pyrazol-3-yl]-4-methylpiperazine] | 
19 |  | > 300 °C (dec.) | CN1CCN(c2n[nH]c(-c3ccc(N(C)C)cc3)c2-c2ccncc2)CC1 [Example A-421, 1-[5-(4-dimethylaminophenyl)-4-(4-pyridinyl)-1H-pyrazol-3-yl]-4-methylpiperazine] | 
20 |  | 223.4 to 224.3 °C | CN1CCN(c2n[nH]c(-c3cccc(C#N)c3)c2-c2ccncc2)CC1 [Example A-422, 1-[5-(3-cyanophenyl)-4-(4-pyrdinyl)-1H-pyrazol-3-yl]4-methylpiperazine] | 
21 |  | 275.6 to 281.9 °C | CSc1ccc(-c2[nH]nc(N3CCN(C)CC3)c2-c2ccncc2)cc1 [Example A-423, 1-[5-(4-thiomethoxyphenyl)-4-(4-pyridinyl)-1H-pyrazol-3-yl]-4-methylpiperazine] | 

Row | IC50 [1] [µM] | melting point | SMILES | also measured
22 |  | 212.6 to 213.7 °C | CN1CCN(c2n[nH]c(-c3cccc(C(F)(F)F)c3)c2-c2ccncc2)CC1 [Example A-424] | 
23 |  | 240.5 °C (dec.) | CN1CCN(c2n[nH]c(-c3ccc(C(F)(F)F)cc3)c2-c2ccncc2)CC1 [Example A-425] | 
24 |  | 199.7 °C (dec.) | CN1CCN(c2n[nH]c(-c3cccs3)c2-c2ccncc2)CC1 [Example A-426] | 
25 | 56.3 | 195.4 to 196.8 °C | COC(=O)CNc1[nH]nc(-c2ccc(Cl)cc2)c1-c1ccncc1 [Example A-429] | 
26 |  | 95.5 to 97.3 °C | O=C(Cc1ccncc1)c1ccc(Cl)cc1 [Example A-431] | 
27 |  | 80.2 to 82.1 °C | CSC(SC)=C(C(=O)c1ccc(F)cc1)c1ccncc1 [Example A-432] | 
28 |  | 87.6 to 88.2 °C | CSC(SC)=C(C(=O)c1ccc(Cl)cc1)c1ccncc1 [Example A-433] | 
29 | 5.84 | 249.9 °C | CSc1[nH]nc(-c2ccc(F)cc2)c1-c1ccncc1 [Example A-434] | 
30 |  | 198.9 to 199.9 °C | Clc1ccc(-c2n[nH]c(OCCN3CCOCC3)c2-c2ccncc2)cc1 [Example A-440] | 
31 | 6.99 | 229.1 to 229.2 °C | COc1ccc(COc2[nH]nc(-c3ccc(Cl)cc3)c2-c2ccncc2)cc1 [Example A-444] | 
32 | > 100 | 118.5 to 120.6 °C | COc1ccc(CSC(SCc2ccc(OC)cc2)=C(C(=O)c2ccc(F)cc2)c2ccncc2)cc1 [Example A-450] | 
33 | 10.2 | 266.3 to 268.9 °C | Sc1[nH]nc(-c2ccc(Cl)cc2)c1-c1ccncc1 [Example A-453] | 
34 | 8.41 | 261.3 to 263.9 °C | Fc1ccc(-c2n[nH]c(S)c2-c2ccncc2)cc1 [Example A-454] | 
35 | > 100 | 215.8 to 215.9 °C | CC(C)(C)OC(=O)N1CCC([S+]([O-])c2[nH]nc(-c3ccc(Cl)cc3)c2-c2ccncc2)CC1 (stereo not drawn) [Example A-464] | 
36 | > 100 | 228 to 230.8 °C | CC(C)(C)OC(=O)N1CCC(S(=O)(=O)c2[nH]nc(-c3ccc(Cl)cc3)c2-c2ccncc2)CC1 [Example A-465] | 
37 | 20.1 | 189.5 °C | COc1ccc(C[S+]([O-])c2[nH]nc(-c3ccc(F)cc3)c2-c2ccncc2)cc1 (stereo not drawn) [Example A-466] | 
38 | 21.4 | 241.9 to 242 °C | COc1ccc(CS(=O)(=O)c2[nH]nc(-c3ccc(F)cc3)c2-c2ccncc2)cc1 [Example A-467] | 
39 | 10.4 | 257.7 °C | Clc1ccc(-c2n[nH]c(SCc3nc4ccccc4[nH]3)c2-c2ccncc2)cc1 [Example A-470] | 
40 | 0.34 | 211.1 to 212.8 °C | CC(C#N)Sc1[nH]nc(-c2ccc(Cl)cc2)c1-c1ccncc1 (stereo not drawn) [Example A-477] | 
41 |  | 284.3 to 284.4 °C | Cc1ccc(S(=O)(=O)Nc2[nH]nc(-c3ccc(Cl)cc3)c2-c2ccncc2)cc1 [Example A-484] | 
42 |  | > 300 °C (dec.) | CN1CCN(c2[nH]nc(C3CCCCC3)c2-c2ccncc2)CC1 [Example A-485, 1-[cyclohexyl-4-(4-pyridinyl)-1H-pyrazol-3-yl]-4-methylpiperazine] | 

Row | SMILES | IC50 [1] [µM] | melting point | also measured
43 | Cc1cccc(-c2n[nH]c(N3CCN(C)CC3)c2-c2ccncc2)c1 [A-389, Step 4] | 0.16 | 261.9 to 262 °C | inhibition in vivo at 5 mg/kg (TNF-α [2]): 55%; inhibition in vivo at 20 mg/kg (TNF-α [2]): 94%
44 | Cc1ccc(-c2n[nH]c(N3CCN(C)CC3)c2-c2ccncc2)cc1C [Example A-410, 1-[5-(3,4-dimethylphenyl)-4-(4-pyridinyl)-1H-pyrazol-3-yl]-4-methylpiperazine] | 0.21 | 270.9 to 272.7 °C | inhibition in vivo at 5 mg/kg (TNF-α [2]): 11%; inhibition in vivo at 20 mg/kg (TNF-α [2]): 0%
45 | CN1CCN(c2[nH]nc(-c3ccc(OC(F)(F)F)cc3)c2-c2ccncc2)CC1 [Example A-411, 1-[5-(4-trifluoromethoxyphenyl)-4-(4-pyridinyl)-1H-pyrazol-3-yl]-4-methylpiperazine] | 3.37 | 221 to 221.2 °C | inhibition in vivo at 5 mg/kg (TNF-α [2]): 40%; inhibition in vivo at 20 mg/kg (TNF-α [2]): 0%
46 | O=C(O)CNc1[nH]nc(-c2ccc(Cl)cc2)c1-c1ccncc1.[Li+] [Example A-430] | > 100 | > 300 °C | 
